Measured values taken from PubChem BioAssay AID1963836 (Molecular Pharmacology Branch, DTP, NCI, 2024).

Test system: 857933-349-R-J2-PDC complex spheroid viability
Assay: Anticancer human tumor 857933-349-R-J2-PDC patient-derived colon adenocarcinoma cell line growth inhibition [POLQ]
Details: for IC50: curve of first compound; for viability, T/C: stronger effect = lower value
Experimental: Multicellular complex tumor spheroid response to Polymerase (POL) inhibitors (novobiocin, ART-558, RP6685) in combination with a variety of drugs and investigational agents in selected tumor cell lines
The POL inhibitors (novobiocin, ART-558, and RP6685) were evaluated both individually and in combination with standard of care and investigational anticancer small molecules within a complex spheroid model of solid tumors. . Complex spheroids include a stromal component modeled by human endothelial cells (HUVEC) and fibroblasts modeled by human mesenchymal stem cells (MSCs). The concentration ranges selected for each drug and investigational agent were based upon clinically achievable concentrations if the clinical Cmax of the agent was known.
Compounds. The drugs and investigational agents: novobiocin (NSC847541), ART-558 (NSC835418), RP-6685 (NSC848927), peposertib (NSC802822), ceralasertib (NSC780249), elimusertib (NSC800525), camonsertib (NSC841442), AZD-1390 (NSC803789), olaparib (NSC753686), talazoparib (NSC767125), rucaparib (NSC756644), sotorasib (NSC818433), MRTX-1133 (NSC836407), SN-38 (NSC673596), topotecan (NSC609699), epotoside (NSC141540), doxorubicin (NSC123127), gemcitabine (NSC613327), 5-fluorouracil (NSC19893), paclitaxel (NSC125973), vemurafenib (NSC761431), MSA-2 (NSC828583), SN-011 (NSC837082), adavosertib (NSC754352), prexasertib (NSC758257), carboplatin (NSC241240) and oxaliplatin (NSC266046), were obtained from the National Cancer Institute (NCI) Developmental Therapeutics Program Chemical Repository (21). The FDA-approved anticancer drug set is available from the Developmental Therapeutics Program at https://dtp.cancer.gov/organization/dscb/obtaining/. […] The stock solutions were prepared in dimethyl sulfoxide (DMSO, Sigma-Aldrich, St. Louis, MO, cat. D2650), except for the platinum compounds which were prepared in saline (Quality Biological, Gaithersburg, MD, cat. 114-055-101), at 800-fold the tested concentration and stored at -70 degrees C prior to their use. All drugs and investigational agents were tested over a range starting from a high concentration at or near the clinical Cmax and decreasing in half-log increments. If the clinical Cmax for an agent had not been determined, the highest concentration tested was 10 microM, except for SN-38, which was tested at a high concentration of 1 microM.
Cell Culture. All cells were maintained in an incubator at 37 degrees C and 5% CO2 with 95% humidity. The PDC lines were cultured according to standard operating procedures established by the NCI PDMR (https://pdmr.cancer.gov). Table 3 of the manuscript, lists the cell lines along with the number of the three cell types plated to form the mct-spheroids and media for tumor cell growth. After thawing, all PDC lines, except 997537-175-T-J1-PDC and 415267-285-R-J2-PDC, were cultured in Matrigel-coated flasks prepared with a working solution of 1X Ham's F-12 nutrient mix, without supplementation (Thermo Fisher Scientific, cat. 11765054), 100 U/mL penicillin-streptomycin (Thermo Fisher Scientific, cat. 15140122), and 2.5% Matrigel (Corning Inc., Corning, NY, cat. 354248) for the first three passages. The two PDC lines 997537-175-T-J1-PDC and 415267-285-R-J2-PDC were cultured on uncoated flasks. The 857933-349-R-J2-PDC line was cultured in 6C/Colon 1B media containing advanced DMEM/F-12 (Thermo Fisher Scientific, cat. 12634028), 10 mM HEPES (Thermo Fisher Scientific, cat. 15630080), 1X GlutaMAX supplement (Thermo Fisher Scientific, cat. 35050061), 0.1 mg/mL primocin (InvivoGen, San Diego, CA, cat. ant-pm-2), 10% defined fetal bovine serum, heat inactivated (HyClone Laboratories Inc., Logan, UT, cat. SH30070.03HI), 50% L-WRN conditioned media (ATCC, cat. CRL-3276), 1.25 mM N-Acetyl-L-cysteine (Sigma-Aldrich, cat. A9165), 10 mM nicotinamide (Sigma-Aldrich, cat. N0636), 1X B-27 supplement (Thermo Fisher Scientific, cat. 17504044), 1X N-2 supplement (Thermo Fisher Scientific, cat. […]
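Further: spheroids exposed to compounds for seven days before readout.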

Question: For C#Cc1c(F)ccc2cc(O)cc(-c3ncc4c(N5CC6CCC(C5)N6)nc(OCC56CCCN5CC(F)C6)nc4c3F)c12 (configuration not stated) + Nc1ccc(C#CCN(C(=O)Cc2ncc(C(F)(F)F)cc2C(F)(F)F)c2ccc(F)cc2)nn1, which IC50 (second compound 0.0316 µM) is on record?
Answer: The IC50 was > 10 µM.

Question: And the IC50 (second compound 0.1 µM)?
Answer: The IC50 was > 10 µM.

Question: What about the IC50 (second compound 0.316 µM) of the same molecule?
Answer: The IC50 was > 10 µM.

Question: What about the IC50 (second compound 1 µM) of the same molecule?
Answer: Its IC50 is > 10 µM.

Question: What about the IC50 (second compound 3.16 µM) of the same molecule?
Answer: Its IC50 is > 10 µM.

Question: And the IC50 (second compound 10 µM)?
Answer: The IC50 was > 10 µM.

Question: What about the viability, T/C (second compound 0.0316 µM, first compound 0.0316 µM) of the same molecule?
Answer: The viability, T/C was 84.4%.

Question: And the viability, T/C (second compound 0.0316 µM, first compound 0.1 µM)?
Answer: The viability, T/C was 99.5%.

Question: And the viability, T/C (second compound 0.0316 µM, first compound 0.316 µM)?
Answer: Its viability, T/C is 82.7%.

Question: And the viability, T/C (second compound 0.0316 µM, first compound 1 µM)?
Answer: The viability, T/C was 80.8%.

Question: What about the viability, T/C (second compound 0.0316 µM, first compound 3.16 µM) of the same molecule?
Answer: Its viability, T/C is 78.2%.

Question: What about the viability, T/C (second compound 0.0316 µM, first compound 10 µM) of the same molecule?
Answer: The viability, T/C was 73.1%.

Question: What about the viability, T/C (second compound 0.1 µM, first compound 0.0316 µM) of the same molecule?
Answer: The viability, T/C was 101%.

Question: And the viability, T/C (second compound 0.1 µM, first compound 0.1 µM)?
Answer: The viability, T/C was 101%.

Question: And the viability, T/C (second compound 0.1 µM, first compound 0.316 µM)?
Answer: Its viability, T/C is 86.8%.

Question: What about the viability, T/C (second compound 0.1 µM, first compound 1 µM) of the same molecule?
Answer: Its viability, T/C is 87.1%.

Question: What about the viability, T/C (second compound 0.1 µM, first compound 3.16 µM) of the same molecule?
Answer: The viability, T/C was 84%.

Question: And the viability, T/C (second compound 0.1 µM, first compound 10 µM)?
Answer: Its viability, T/C is 80.7%.

Question: What about the viability, T/C (second compound 0.316 µM, first compound 0.0316 µM) of the same molecule?
Answer: The viability, T/C was 95.3%.

Question: And the viability, T/C (second compound 0.316 µM, first compound 0.1 µM)?
Answer: The viability, T/C was 92.4%.

Question: What about the viability, T/C (second compound 0.316 µM, first compound 0.316 µM) of the same molecule?
Answer: Its viability, T/C is 79%.

Question: And the viability, T/C (second compound 0.316 µM, first compound 1 µM)?
Answer: The viability, T/C was 73%.

Question: What about the viability, T/C (second compound 0.316 µM, first compound 3.16 µM) of the same molecule?
Answer: The viability, T/C was 93.8%.

Question: What about the viability, T/C (second compound 0.316 µM, first compound 10 µM) of the same molecule?
Answer: Its viability, T/C is 75.5%.

Question: And the viability, T/C (second compound 1 µM, first compound 0.0316 µM)?
Answer: Its viability, T/C is 104%.

Question: What about the viability, T/C (second compound 1 µM, first compound 0.1 µM) of the same molecule?
Answer: Its viability, T/C is 100%.

Question: And the viability, T/C (second compound 1 µM, first compound 0.316 µM)?
Answer: The viability, T/C was 79.5%.

Question: And the viability, T/C (second compound 1 µM, first compound 1 µM)?
Answer: Its viability, T/C is 79.7%.

Question: What about the viability, T/C (second compound 1 µM, first compound 3.16 µM) of the same molecule?
Answer: The viability, T/C was 86.8%.

Question: And the viability, T/C (second compound 1 µM, first compound 10 µM)?
Answer: The viability, T/C was 70.6%.

Question: And the viability, T/C (second compound 3.16 µM, first compound 0.0316 µM)?
Answer: The viability, T/C was 101%.

Question: What about the viability, T/C (second compound 3.16 µM, first compound 0.1 µM) of the same molecule?
Answer: The viability, T/C was 86.8%.

Question: And the viability, T/C (second compound 3.16 µM, first compound 0.316 µM)?
Answer: Its viability, T/C is 82.7%.

Question: And the viability, T/C (second compound 3.16 µM, first compound 1 µM)?
Answer: Its viability, T/C is 76.7%.

Question: What about the viability, T/C (second compound 3.16 µM, first compound 3.16 µM) of the same molecule?
Answer: Its viability, T/C is 107%.

Question: What about the viability, T/C (second compound 3.16 µM, first compound 10 µM) of the same molecule?
Answer: The viability, T/C was 68.6%.

Question: What about the viability, T/C (second compound 10 µM, first compound 0.0316 µM) of the same molecule?
Answer: Its viability, T/C is 87%.

Question: What about the viability, T/C (second compound 10 µM, first compound 0.1 µM) of the same molecule?
Answer: Its viability, T/C is 76.8%.

Question: And the viability, T/C (second compound 10 µM, first compound 0.316 µM)?
Answer: Its viability, T/C is 87%.

Question: What about the viability, T/C (second compound 10 µM, first compound 1 µM) of the same molecule?
Answer: Its viability, T/C is 73.9%.

Question: And the viability, T/C (second compound 10 µM, first compound 3.16 µM)?
Answer: Its viability, T/C is 76.3%.

Question: What about the viability, T/C (second compound 10 µM, first compound 10 µM) of the same molecule?
Answer: The viability, T/C was 69%.
